From US20140037642A1, “METHODS AND COMPOSITIONS RELATING TO INHIBITION OF IGF-1R” (AMGEN INC., priority 2011, published 2014)
Values joined by “and” are separate entries in the source; they are usually repeats but may differ in a detail not shown here. Equal entries are not always repeated. Where two headings read alike, the source gives them in different places.

Columns and labels:
[1] = tested on: metastatic pancreatic cancer patients; assay: Placebo-controlled, randomized phase 2 study plus gemcitabine; assay type: in vivo, human; settings: for 6-Month OS Rate (95% CI) / 12-Month OS Rate (95% CI) / Median OS, Months (95% CI) / Median PFS, Months (95% CI): conatumumab 10 mg/kg Q2W or ganitumab 12 mg/kg Q2W; for Stratified HR (95% CI), OS / Stratified HR (95% CI), PFS: versus placebo plus gemcitabine
Protocol: The primary endpoint was six month overall survival rate.
Key inclusion criteria were histologically or cytologically documented metastatic adenocarcinoma of the pancreas, age eighteen years or older, ECOG PS 0 or 1, adequate hematologic, hepatic, renal, and coagulation function, amylase and lipase≦2.0×ULN, adequately controlled type 1 or 2 diabetes (amended during protocol to fasting blood glucose<[…] only), fasting blood glucose≦[…], HbAlc<8%, and written informed consent.
Key exclusion criteria were uncontrolled cardiac disease and prior chemotherapy or radiation in the adjuvant or metastatic setting.

[2] = Subject #8, diagnosis Unknown, 1 mg/Kg
[3] = Subject #10, Adenoid R eye, 20 mg/Kg
[4] = Subject #11, Carcinoid, 3 mg/Kg
[5] = Subject #11, Carcinoid, 3 mg/Kg cohort
[6] = twelve subjects, 1 to 20 mg/kg, RECIST
[7] = patients with measurable disease at baseline, plus gemcitabine
[8] = plus gemcitabine, listed as ganitumab

Protocol for tumors in human subjects: Each subject was assigned to one of six dosing cohorts. […] The subjects also received individualized palliative care, as appropriate, to reduce the severity of their symptoms.
Response to treatment was assessed using the Response Evaluation Criteria in Solid Tumors (RECIST) criteria as described in Therasse et al. 2000, J Natl Cancer Inst. […] Briefly, prior to administration of the first dose, each subject was given a computerized tomography (CT) scan to determine the length of the largest measurable tumor along its longest diameter (“Baseline TM (cm)” in Table 9). CT scans were used to measure the same tumors along the same diameter at certain points after initiation of treatment (“Day X Tumor (cm)” in Table 9). Each such measurement was compared to the baseline tumor measurement for the same subject to calculate the percent increase or decrease in tumor size.

Ganitumab
Day 50 Tumor (cm) (tumors in human subjects; Subject #5, Thymus, 1 mg/Kg): 10.4 cm
Day 50 Tumor, percent change vs baseline (tumors in human subjects; Subject #5, Thymus, 1 mg/Kg): (+4%)
Day 50 Tumor (cm) (tumors in human subjects; Subject #6, Melanoma, 10 mg/Kg): 28.4 cm
Day 50 Tumor, percent change vs baseline (tumors in human subjects; Subject #6, Melanoma, 10 mg/Kg): (+1%)
Day 50 Tumor (cm) (tumors in human subjects; Subject #7, Adenoid, 1 mg/Kg): 30.9 cm
Day 50 Tumor, percent change vs baseline (tumors in human subjects; Subject #7, Adenoid, 1 mg/Kg): (−1%)
Day 50 Tumor (cm) (tumors in human subjects; [2]): 18.2 cm
Day 50 Tumor, percent change vs baseline (tumors in human subjects; [2]): (−2%)
Day 106 Tumor (cm) (tumors in human subjects; [2]): 18.9 cm
Day 106 Tumor, percent change vs baseline (tumors in human subjects; [2]): (+2%)
Day 162 Tumor (cm) (tumors in human subjects; [2]): 23.2 cm
Day 162 Tumor, percent change vs baseline (tumors in human subjects; [2]): (+25%)
Day 50 Tumor (cm) (tumors in human subjects; Subject #9, Breast, 20 mg/Kg): 4.7 cm
Day 50 Tumor, percent change vs baseline (tumors in human subjects; Subject #9, Breast, 20 mg/Kg): (−2%)
Day 50 Tumor (cm) (tumors in human subjects; [3]): 35.2 cm
Day 50 Tumor, percent change vs baseline (tumors in human subjects; [3]): (−9%)
Day 50 Tumor (cm) (tumors in human subjects; [4]): 14 cm
Day 50 Tumor, percent change vs baseline (tumors in human subjects; [4]): (+7%)
Day 106 Tumor (cm) (tumors in human subjects; [4]): 11 cm
Day 106 Tumor, percent change vs baseline (tumors in human subjects; [4]): (−16%)
Day 169 Tumor (cm) (tumors in human subjects; [4]): 10.6 cm
Day 169 Tumor, percent change vs baseline (tumors in human subjects; [4]): (−19%)
Day 225 Tumor (cm) (tumors in human subjects; [4]): 8.4 cm
Day 225 Tumor, percent change vs baseline (tumors in human subjects; [4]): (−36%)
Day 281 Tumor (cm) (tumors in human subjects; [5]): 8.2 cm
Day 281 Tumor, percent change vs baseline (tumors in human subjects; [5]): (−37%)
Day 338 Tumor (cm) (tumors in human subjects; [5]): 6.8 cm
Day 338 Tumor, percent change vs baseline (tumors in human subjects; [5]): (−48%)
Day 50 Tumor (cm) (tumors in human subjects; Subject #12, Ewing's, 12 mg/Kg): 2.2 cm
Day 50 Tumor, percent change vs baseline (tumors in human subjects; Subject #12, Ewing's, 12 mg/Kg): (−78%)
Day 85 Tumor, percent change vs baseline (tumors in human subjects; Subject #12, Ewing's, 12 mg/Kg): (−100%)
Day 85 Tumor (cm) (tumors in human subjects; Subject #12, Ewing's, 12 mg/Kg, listed as Study Drug): 0 cm and 0.0 cm
number of subjects with a reduction in tumor size of at least 30% (tumors in human subjects; [6]): two
number of subjects with best response progressive disease (PD) (tumors in human subjects; [6]): two
Best Overall Response: Confirmed CR - n (%) [1, 7]: 0 (0) n (%)
Best Overall Response: Confirmed PR - n (%) [1, 7]: 4 (10) n (%)
Best Overall Response: PD - n (%) [1, 7]: 13 (33) n (%)
Best Overall Response: SD (Includes Unconfirmed PR) - n (%) [1, 7]: 16 (41) n (%)
Best Overall Response: Unconfirmed PR - n (%) [1, 7]: 0 (0) n (%)
Best Overall Response: Unknown - n (%) [1, 7]: 6 (15) n (%)
rate of SD+PR ([1]; plus gemcitabine): 51%
6-Month OS Rate (95% CI) ([1]; plus gemcitabine): 57% (41, 70)
12-Month OS Rate (95% CI) ([1]; plus gemcitabine): 39% (25, 54)
Median OS, Months (95% CI) ([1]; plus gemcitabine): 8.7 (5.3, 12.2) Months
Median PFS, Months (95% CI) ([1]; plus gemcitabine): 5.1 (2.8, 5.8) Months
6-Month OS Rate (95% CI) [1, 8]: 57%
12-Month OS Rate (95% CI) [1, 8]: 39%
Median OS, Months (95% CI) [1, 8]: 8.7 Months
Median PFS, Months (95% CI) [1, 8]: 5.1 Months
Stratified HR (95% CI), OS [1]: 0.67 (0.41, 1.12)
Stratified HR (95% CI), PFS [1]: 0.65 (0.41, 1.04)
Stratified HR (95% CI), OS ([1]; listed as ganitumab): 0.67
Stratified HR (95% CI), PFS ([1]; listed as ganitumab): 0.65
